In patent US20190322676A1, “CERAMIDE GALACTOSYLTRANSFERASE INHIBITORS FOR THE TREATMENT OF DISEASE” (BioMarin Pharmaceutical Inc., priority 2016, published 2019):
Counter-ions that a name gives are not always drawn.

The compounds below were run against T1, human CGT (ceramide galactosyltransferase), CHO/CGT lysate (Homo sapiens, UniProt Q16880) (assay: CGT enzyme assay, RapidFire/MS/MS readout (Table 1 ranges with one asterisk *)). Details: RapidFire method (range with one asterisk *).
T1 construct: Full-length human CGT cDNA was cloned into the BamH1/Xho1 site of pcDNA3.1 (+); expressed in transfected cells; host or cells: Chinese hamster ovary (CHO) cells; lysate prepared with M-PER
T1 sequence (Q16880 21-541): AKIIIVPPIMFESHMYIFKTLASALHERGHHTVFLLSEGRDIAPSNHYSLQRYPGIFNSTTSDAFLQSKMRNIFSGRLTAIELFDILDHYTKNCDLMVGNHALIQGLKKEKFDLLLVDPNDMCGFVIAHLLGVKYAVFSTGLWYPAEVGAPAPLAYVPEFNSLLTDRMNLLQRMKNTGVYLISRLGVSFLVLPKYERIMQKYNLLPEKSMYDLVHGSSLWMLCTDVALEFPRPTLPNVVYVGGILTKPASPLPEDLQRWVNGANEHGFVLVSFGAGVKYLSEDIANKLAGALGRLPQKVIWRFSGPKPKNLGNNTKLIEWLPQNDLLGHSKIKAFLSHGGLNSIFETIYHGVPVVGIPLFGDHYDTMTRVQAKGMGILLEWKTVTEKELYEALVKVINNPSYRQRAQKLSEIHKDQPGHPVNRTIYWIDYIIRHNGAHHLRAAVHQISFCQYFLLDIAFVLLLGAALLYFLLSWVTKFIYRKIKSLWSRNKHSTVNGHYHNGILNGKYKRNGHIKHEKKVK
Type: biochemical
How it was run: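 Lysate (4 μg) of CHO cells transfected with full-length human CGT incubated 1 h at 37 °C with compound (0.001–50 μM) in pH 7.2 HEPES buffer with 10 μM C6-NBD-dihydro-ceramide, 17.5 μM UDP-galactose, Mg2+/Mn2+, CHAPS, BSA, 0.5% DMSO; ** set also contained 0.01% Tween 80. Product quantified by RapidFire/MS/MS, normalized to internal standard; IC50 from sigmoidal variable-slope fits.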

Compound | IC50 [µM]
NC1CCN(C(=O)[C@@H](NS(=O)(=O)c2ccc3cc(OC4CCCC4)ccc3c2)C(F)(F)c2ccc(Br)cc2)CC1 [Compound 32-1, (R)—N-(3-(4-aminopiperidin-1-yl)-1-(4-bromophenyl)-1,1-difluoro-3-oxopropan-2-yl)-6-(cyclopentyloxy)naphthalene-2-sulfonamide trifluoroacetate] | < 1
NC1CC2CCC(C1)N2C(=O)[C@H](NS(=O)(=O)c1ccc2cc(OC3CCCC3)ccc2c1)C(F)(F)c1ccc(OC2CCCCC2)cc1 (stereo partly drawn) [Compound 102-2, N-((2S)-3-(3-amino-8-azabicyclo[3.2.1]octan-8-yl)-1-(4-(cyclohexyloxy)phenyl)-1,1-difluoro-3-oxopropan-2-yl)-6-(cyclopentyloxy)naphthalene-2-sulfonamide] | 1 to 10
NC1CCN(C(=O)[C@H](NS(=O)(=O)c2ccc3cc(OC4CCCC4)ccc3c2)C(F)(F)c2ccc(-c3ccc(Cl)s3)cc2)CC1 [Compound 112-2, (S)—N-(3-(4-aminopiperidin-1-yl)-1-(4-(5-chlorothiophen-2-yl)phenyl)-1,1-difluoro-3-oxopropan-2-yl)-6-(cyclopentyloxy)naphthalene-2-sulfonamide trifluoroacetate] | 1 to 10
NC1CC2CCC(C1)N2C(=O)[C@@H](NS(=O)(=O)c1ccc2c(cnn2CC2CCCC2)c1)C(F)(F)c1ccc(C(F)(F)F)cc1 (stereo partly drawn) [Compound 92-1, N-((2R)-3-(3-amino-8-azabicyclo[3.2.1]octan-8-yl)-1,1-difluoro-3-oxo-1-(4-(trifluoromethyl)phenyl)propan-2-yl)-1-(cyclopentylmethyl)-1H-indazole-5-sulfonamide] | < 1
NC1CC2CCC(C1)N2C(=O)[C@@H](NS(=O)(=O)c1ccc(OCC2CCCCC2)cc1)C(F)(F)c1ccc(Cl)cc1 (stereo partly drawn) [Compound 29-1, N-((2R)-3-(3-amino-8-azabicyclo[3.2.1]octan-8-yl)-1-(4-chlorophenyl)-1,1-difluoro-3-oxopropan-2-yl)-4-(cyclohexylmethoxy)benzenesulfonamide trifluoroacetate] | < 1
CN([C@H](C(=O)N1C2CCC1CC(N)C2)C(F)(F)c1ccc(OCCN2CCOCC2)cc1)S(=O)(=O)c1ccc2cc(OC3CCCC3)ccc2c1 (stereo partly drawn) [Compound 115-1, N-((2R)-3-(3-amino-8-azabicyclo[3.2.1]octan-8-yl)-1,1-difluoro-1-(4-(2-morpholinoethoxy)phenyl)-3-oxopropan-2-yl)-6-(cyclopentyloxy)-N-methylnaphthalene-2-sulfonamide] | 1 to 10
CCCCOc1ccc(C(F)(F)[C@H](C(=O)N2CCC(N)CC2)N(C)S(=O)(=O)c2ccc3cc(OC4CCCC4)ccc3c2)cc1 [Compound 53-2, (S)—N-(3-(4-aminopiperidin-1-yl)-1-(4-butoxyphenyl)-1,1-difluoro-3-oxopropan-2-yl)-6-(cyclopentyloxy)-N-methylnaphthalene-2-sulfonamide] | 10 to 30
CN([C@@H](C(=O)N1C2CCC1CC(N)C2)C(F)(F)c1ccc(-c2ccccc2)cc1)S(=O)(=O)c1ccc2cc(OC3CCCC3)ccc2c1 (stereo partly drawn) [Compound 49-2, N-((2S)-1-([1,1′-biphenyl]-4-yl)-3-(3-amino-8-azabicyclo[3.2.1]octan-8-yl)-1,1-difluoro-3-oxopropan-2-yl)-6-(cyclopentyloxy)-N-methylnaphthalene-2-sulfonamide] | 10 to 30
N[C@@H]1CCCN(C(=O)[C@H](NS(=O)(=O)c2ccc3cc(OC4CCCC4)ccc3c2)C(F)(F)c2ccc(Br)cc2)C1 [Compound 122-2, N—((S)-3-((R)-3-aminopiperidin-1-yl)-1-(4-bromophenyl)-1,1-difluoro-3-oxopropan-2-yl)-6-(cyclopentyloxy)naphthalene-2-sulfonamide] | 30 to 100
NC1CCN(C(=O)[C@@H](NS(=O)(=O)c2ccc(OCC3CCCCC3)cc2)C(F)(F)c2ccc(C(F)(F)F)cc2)CC1 [Compound 72-1, (R)—N-(3-(4-aminopiperidin-1-yl)-1,1-difluoro-3-oxo-1-(4-(trifluoromethyl)phenyl)propan-2-yl)-4-(cyclohexylmethoxy)benzenesulfonamide] | 1 to 10
NC1CCN(C(=O)[C@@H](NS(=O)(=O)c2ccc(OCC3CCCCC3)cc2)C(F)(F)c2ccc(Cl)cc2)CC1 [Compound 30-1, (R)—N-(3-(4-aminopiperidin-1-yl)-1-(4-chlorophenyl)-1,1-difluoro-3-oxopropan-2-yl)-4-(cyclohexylmethoxy)benzenesulfonamide trifluoroacetate] | 1 to 10
NC1CC2CCC(C1)N2C(=O)[C@@H](NS(=O)(=O)c1ccc(OCC2CCCCC2)cc1)C(F)(F)c1ccc(OC2CCCCC2)cc1 (stereo partly drawn) [Compound 105-1, N-((2R)-3-(3-amino-8-azabicyclo[3.2.1]octan-8-yl)-1-(4-(cyclohexyloxy)phenyl)-1,1-difluoro-3-oxopropan-2-yl)-4-(cyclohexylmethoxy) benzenesulfonamide] | < 1
NC1CCN(C(=O)[C@H](NS(=O)(=O)c2ccc(OCC3CCCCC3)cc2)C(F)(F)c2ccc(-c3ccc(Cl)s3)cc2)CC1 [Compound 117-2, (S)—N-(3-(4-aminopiperidin-1-yl)-1-(4-(5-chlorothiophen-2-yl)phenyl)-1,1-difluoro-3-oxopropan-2-yl)-4-(cyclohexylmethoxy) benzenesulfonamide] | 10 to 30
CC(C)N([C@H](C(=O)N1C2CCC1CC(N)C2)C(F)(F)c1ccc(Br)cc1)S(=O)(=O)c1ccc2cc(OC3CCCC3)ccc2c1 (stereo partly drawn) [Compound 76-1, N-((2R)-3-(3-amino-8-azabicyclo[3.2.1]octan-8-yl)-1-(4-bromophenyl)-1,1-difluoro-3-oxopropan-2-yl)-6-(cyclopentyloxy)-N-isopropylnaphthalene-2-sulfonamide] | 10 to 30
NC1CC2CCC(C1)N2C(=O)[C@@H](NS(=O)(=O)c1ccc2cc(OC3CCCC3)ccc2c1)C(F)(F)c1ccc(-c2ccccc2)cc1 (stereo partly drawn) [Compound 36-1, N-((2R)-1-([1,1′-biphenyl]-4-yl)-3-(3-amino-8-azabicyclo[3.2.1]octan-8-yl)-1,1-difluoro-3-oxopropan-2-yl)-6-(cyclopentyloxy)naphthalene-2-sulfonamide trifluoroacetate] | < 1
NC1CCN(C(=O)[C@H](NS(=O)(=O)c2ccc3cc(OC4CCCC4)ccc3c2)C(F)(F)c2ccc(Cl)cc2)CC1 [Compound 98-2, (S)—N-(3-(4-aminopiperidin-1-yl)-1-(4-chlorophenyl)-1,1-difluoro-3-oxopropan-2-yl)-6-(cyclopentyloxy)naphthalene-2-sulfonamide] | 10 to 30
CCCCOc1cc(C(F)(F)[C@@H](NS(=O)(=O)c2ccc(OCC3CCCCC3)cc2)C(=O)N2C3CCC2CC(N)C3)ccc1Cl (stereo partly drawn) [Compound 120-2, N-((2S)-3-(3-amino-8-azabicyclo[3.2.1]octan-8-yl)-1-(3-butoxy-4-chlorophenyl)-1,1-difluoro-3-oxopropan-2-yl)-4-(cyclohexylmethoxy)benzenesulfonamide] | 1 to 10
NC1CC2CCC(C1)N2C(=O)[C@@H](NS(=O)(=O)c1ccc2cc(OC3CCCC3)ccc2c1)C(F)(F)c1ccc(Cl)s1 (stereo partly drawn) [Compound 130-1, N-((2R)-3-(3-amino-8-azabicyclo[3.2.1]octan-8-yl)-1-(5-chlorothiophen-2-yl)-1,1-difluoro-3-oxopropan-2-yl)-6-(cyclopentyloxy)naphthalene-2-sulfonamide] | 1 to 10
NC1CCN(C(=O)[C@@H](NS(=O)(=O)c2ccc3cc(OC4CCCC4)ccc3c2)C(F)(F)c2ccc(Cl)s2)CC1 [Compound 131-1, (R)—N-(3-(4-aminopiperidin-1-yl)-1-(5-chlorothiophen-2-yl)-1,1-difluoro-3-oxopropan-2-yl)-6-(cyclopentyloxy)naphthalene-2-sulfonamide] | 1 to 10
NC1CC2CCC(C1)N2C(=O)[C@@H](NS(=O)(=O)c1ccc2cc(OC3CCCC3)ccc2c1)C(F)(F)c1ccc2cc(Br)ccc2c1 (stereo partly drawn) [Compound 38-1, N-((2R)-3-(3-amino-8-azabicyclo[3.2.1]octan-8-yl)-1-(6-bromonaphthalen-2-yl)-1,1-difluoro-3-oxopropan-2-yl)-6-(cyclopentyloxy) naphthalene-2-sulfonamide trifluoroacetate] | 1 to 10
NCC1CCN(C(=O)[C@H](NS(=O)(=O)c2ccc3cc(OC4CCCC4)ccc3c2)C(F)(F)c2ccc(-c3ccc(Cl)cc3)cc2)CC1 [Compound 138-2, (S)—N-(3-(4-(aminomethyl)piperidin-1-yl)-1-(4′-chloro-[1,1′-biphenyl]-4-yl)-1,1-difluoro-3-oxopropan-2-yl)-6-(cyclopentyloxy)naphthalene-2-sulfonamide trifluoroacetate] | 1 to 10
NC1CC2CCC(C1)N2C(=O)[C@@H](NC(=O)[C@H](O)c1ccc2cc(OC3CCCC3)ccc2c1)C(F)(F)c1ccc(Br)cc1 (stereo partly drawn) [Compound 41-5, (2R)—N-((2R)-3-(3-amino-8-azabicyclo[3.2.1]octan-8-yl)-1-(4-bromophenyl)-1,1-difluoro-3-oxopropan-2-yl)-2-(6-(cyclopentyloxy)naphthalen-2-yl)-2-hydroxyacetamide trifluoroacetate] | 10 to 30
